Assay results taken from ChEMBL document CHEMBL5226304, “Fused-azepinones: Emerging scaffolds of medicinal importance” (Eur J Med Chem, 2021).
≈ marks a conversion by molar mass, not a printed value.

Assays:
[1] = test system: MCF7; assay: Growth inhibition of human MCF7 cells at 1 uM by MTT assay relative to control; type: functional; conditions: read-out: GI
[2] = molecular target: Cyclin-dependent kinase 1/cyclin B (Homo sapiens, UniProt P06493); assay: Inhibition of CDK1/Cyclin B (unknown origin) in presence of gamma32P-ATP by scintillation counter analysis; type: protein-complex assay
[3] = molecular target: Dual specificity mitogen-activated protein kinase kinase 1 (Homo sapiens, UniProt Q02750); assay: Inhibition of MEK1 (unknown origin)
Sequence of Dual specificity mitogen-activated protein kinase kinase 1 (Q02750 whole entry): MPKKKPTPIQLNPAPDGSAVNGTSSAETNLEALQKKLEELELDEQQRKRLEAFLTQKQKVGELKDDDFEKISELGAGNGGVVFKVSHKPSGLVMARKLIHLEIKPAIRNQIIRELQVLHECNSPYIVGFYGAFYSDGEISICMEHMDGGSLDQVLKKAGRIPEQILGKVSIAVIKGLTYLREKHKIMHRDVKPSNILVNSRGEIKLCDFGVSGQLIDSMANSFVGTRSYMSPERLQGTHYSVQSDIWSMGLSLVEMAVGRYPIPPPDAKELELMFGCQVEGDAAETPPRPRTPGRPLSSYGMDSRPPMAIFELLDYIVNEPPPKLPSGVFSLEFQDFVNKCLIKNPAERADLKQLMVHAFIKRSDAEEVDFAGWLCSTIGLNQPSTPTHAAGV

[4] = molecular target: Protein kinase C (PKC); assay: Inhibition of Protein kinase C (unknown origin); type: protein assay, Homo sapiens
[5] = molecular target: Cyclin-dependent kinase 5/CDK5 activator 1 (Homo sapiens, UniProt Q00535); assay: Inhibition of CDK5/p25 (unknown origin); type: protein-complex assay
Sequence of Cyclin-dependent kinase 5/CDK5 activator 1 (Q00535 whole entry): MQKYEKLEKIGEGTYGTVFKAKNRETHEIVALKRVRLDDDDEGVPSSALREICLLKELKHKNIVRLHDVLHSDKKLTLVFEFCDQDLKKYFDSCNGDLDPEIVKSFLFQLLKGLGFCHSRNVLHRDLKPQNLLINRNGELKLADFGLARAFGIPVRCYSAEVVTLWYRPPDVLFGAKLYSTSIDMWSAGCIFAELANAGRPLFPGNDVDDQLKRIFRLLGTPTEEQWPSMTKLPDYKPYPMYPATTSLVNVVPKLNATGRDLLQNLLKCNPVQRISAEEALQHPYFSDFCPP
Sequence of Cyclin-dependent kinase 5/CDK5 activator 1 (Q15078 whole entry, further chain): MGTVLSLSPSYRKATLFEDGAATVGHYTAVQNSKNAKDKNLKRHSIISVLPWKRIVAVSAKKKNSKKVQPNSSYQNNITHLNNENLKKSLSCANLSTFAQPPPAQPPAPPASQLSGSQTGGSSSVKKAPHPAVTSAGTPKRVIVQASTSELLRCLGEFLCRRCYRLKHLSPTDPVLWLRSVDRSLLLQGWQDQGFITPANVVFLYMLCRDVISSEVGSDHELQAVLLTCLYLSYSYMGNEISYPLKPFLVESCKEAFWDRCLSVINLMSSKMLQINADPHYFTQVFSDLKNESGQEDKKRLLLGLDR

[6] = test system: L5178Y; assay: Cytotoxicity against mouse L5178Y cells by MTT assay; type: functional, cell-based
[7] = test system: Rattus norvegicus; assay: Antiarthritic activity in adjuvant-induced arthritis rat model assessed as reduction in paw swelling at 20 mg/kg, ip administered for day 6 to 10 post adjuvant measured on day 16 to 20 relative to control; type: functional
[8] = test system: Rattus norvegicus; assay: Antiarthritic activity in adjuvant-induced arthritis rat model assessed as reduction in paw swelling at 10 mg/kg, ip administered for day 6 to 10 post adjuvant measured on day 16 to 20 relative to control; type: functional
[9] = organism: Homo sapiens; assay: Selectivity ratio of IC50 for Chk1 (unknown origin) to IC50 for (unknown origin)
[10] = test system: A549; assay: Cytotoxicity against human A549 cells by MTT assay; type: functional, cell-based
[11] = test system: HepG2; assay: Cytotoxicity against human HepG2 cells by MTT assay; type: functional, cell-based
[12] = test system: MOLT-3; assay: Cytotoxicity against human MOLT-3 cells by MTT assay; type: functional, cell-based
[13] = molecular target: Tubulin; assay: Inhibition of tubulin polymerization (unknown origin); type: protein-complex assay, Homo sapiens
[14] = test system: P388; assay: Cytotoxicity against mouse P388 cells; type: functional; conditions: read-out: ED50 (the source's name)
[15] = molecular target: CDK1/Cyclin E (Homo sapiens, UniProt P06493); assay: Inhibition of CDK1/Cyclin E (unknown origin); type: protein-complex assay
Sequence of CDK1/Cyclin E (P06493 whole entry): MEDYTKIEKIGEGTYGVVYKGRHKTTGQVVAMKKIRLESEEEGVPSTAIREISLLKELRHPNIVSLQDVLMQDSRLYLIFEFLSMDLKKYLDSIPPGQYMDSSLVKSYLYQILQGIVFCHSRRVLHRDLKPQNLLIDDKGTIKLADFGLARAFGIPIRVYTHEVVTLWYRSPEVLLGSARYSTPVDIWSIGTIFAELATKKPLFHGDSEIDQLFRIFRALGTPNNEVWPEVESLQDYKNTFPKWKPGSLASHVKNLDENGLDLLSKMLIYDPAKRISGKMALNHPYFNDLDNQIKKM
Sequence of CDK1/Cyclin E (P24864 whole entry, further chain): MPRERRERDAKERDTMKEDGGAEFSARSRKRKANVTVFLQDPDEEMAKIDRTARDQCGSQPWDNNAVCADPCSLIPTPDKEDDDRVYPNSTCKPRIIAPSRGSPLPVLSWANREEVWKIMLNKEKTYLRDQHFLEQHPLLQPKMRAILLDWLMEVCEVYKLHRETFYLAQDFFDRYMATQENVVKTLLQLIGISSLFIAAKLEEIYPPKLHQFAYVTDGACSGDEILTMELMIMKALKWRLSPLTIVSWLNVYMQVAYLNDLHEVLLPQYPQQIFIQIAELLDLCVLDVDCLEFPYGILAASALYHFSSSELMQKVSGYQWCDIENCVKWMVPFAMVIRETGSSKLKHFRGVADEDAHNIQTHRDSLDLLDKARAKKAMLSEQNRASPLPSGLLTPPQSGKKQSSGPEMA

[16] = molecular target: CDK3/Cyclin E (Homo sapiens, UniProt Q00526); assay: Inhibition of CDK3/Cyclin E (unknown origin); type: protein-complex assay
Sequence of CDK3/Cyclin E (P24864 whole entry): as the sequence (P24864 whole entry, further chain) above
Sequence of CDK3/Cyclin E (Q00526 whole entry): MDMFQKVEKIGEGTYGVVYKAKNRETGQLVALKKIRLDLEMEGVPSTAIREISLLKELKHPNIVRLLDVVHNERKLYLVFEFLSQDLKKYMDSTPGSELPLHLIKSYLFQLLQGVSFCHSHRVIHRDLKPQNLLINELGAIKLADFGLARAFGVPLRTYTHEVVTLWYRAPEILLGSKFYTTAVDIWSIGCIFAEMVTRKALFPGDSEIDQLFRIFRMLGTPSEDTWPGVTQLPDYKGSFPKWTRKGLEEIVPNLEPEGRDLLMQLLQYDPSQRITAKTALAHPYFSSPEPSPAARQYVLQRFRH

[17] = molecular target: Mitogen-activated protein kinase 3 (Homo sapiens, UniProt P27361); assay: Inhibition of Erk1 (unknown origin)
Sequence of Mitogen-activated protein kinase 3 (P27361 whole entry): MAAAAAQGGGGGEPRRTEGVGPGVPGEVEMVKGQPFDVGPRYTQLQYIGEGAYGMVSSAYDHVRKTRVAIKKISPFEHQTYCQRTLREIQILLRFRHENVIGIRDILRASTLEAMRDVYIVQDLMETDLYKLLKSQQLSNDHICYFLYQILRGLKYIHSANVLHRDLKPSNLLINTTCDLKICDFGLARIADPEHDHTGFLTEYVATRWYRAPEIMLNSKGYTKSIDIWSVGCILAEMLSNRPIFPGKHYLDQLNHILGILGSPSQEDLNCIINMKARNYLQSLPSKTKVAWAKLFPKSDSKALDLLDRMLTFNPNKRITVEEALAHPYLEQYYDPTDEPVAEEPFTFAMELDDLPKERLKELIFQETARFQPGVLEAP

[18] = Inhibition of MAPKK (unknown origin); parameters: species or system Homo sapiens
[19] = molecular target: Casein kinase I; assay: Inhibition of CK1 (unknown origin); type: protein assay, Homo sapiens
[20] = molecular target: Casein kinase 2 (Homo sapiens, UniProt P67870+P68400+P19784+Q8NEV1); assay: Inhibition of CK2 (unknown origin); type: protein assay
[21] = molecular target: Cyclin-dependent kinase 4/cyclin D1 (Homo sapiens, UniProt P11802); assay: Inhibition of CDK4/Cyclin D1 (unknown origin); type: protein-complex assay
Sequence of Cyclin-dependent kinase 4/cyclin D1 (P11802 whole entry): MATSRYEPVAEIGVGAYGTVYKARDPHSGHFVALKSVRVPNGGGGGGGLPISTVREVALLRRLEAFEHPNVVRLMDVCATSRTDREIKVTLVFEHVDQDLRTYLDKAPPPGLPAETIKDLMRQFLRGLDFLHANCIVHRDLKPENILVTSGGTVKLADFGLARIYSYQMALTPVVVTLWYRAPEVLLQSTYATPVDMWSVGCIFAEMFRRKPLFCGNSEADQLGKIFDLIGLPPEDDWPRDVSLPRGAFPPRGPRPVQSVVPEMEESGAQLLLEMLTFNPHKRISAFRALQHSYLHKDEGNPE
Sequence of Cyclin-dependent kinase 4/cyclin D1 (P24385 whole entry, further chain): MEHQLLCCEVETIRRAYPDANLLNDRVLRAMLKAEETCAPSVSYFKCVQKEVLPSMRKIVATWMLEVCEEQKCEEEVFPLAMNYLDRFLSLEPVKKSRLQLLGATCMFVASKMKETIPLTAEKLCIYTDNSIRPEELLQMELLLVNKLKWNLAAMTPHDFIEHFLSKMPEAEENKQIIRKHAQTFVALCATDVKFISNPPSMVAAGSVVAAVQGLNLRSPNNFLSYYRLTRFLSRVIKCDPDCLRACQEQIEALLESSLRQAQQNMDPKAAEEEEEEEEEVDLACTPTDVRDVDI

[22] = molecular target: CDK6/cyclin D2 (Homo sapiens, UniProt P30279+Q00534); assay: Inhibition of CDK6/Cyclin D2 (unknown origin); type: protein-complex assay
[23] = Inhibition of cAMP-dependent protein kinase (unknown origin); parameters: species or system Homo sapiens
[24] = Inhibition of cGMP-dependent protein kinase (unknown origin); parameters: species or system Homo sapiens
[25] = molecular target: Proto-oncogene tyrosine-protein kinase Src (Homo sapiens, UniProt P12931); assay: Inhibition of c-Src (unknown origin)
Sequence of Proto-oncogene tyrosine-protein kinase Src (P12931 2-536 limits assumed): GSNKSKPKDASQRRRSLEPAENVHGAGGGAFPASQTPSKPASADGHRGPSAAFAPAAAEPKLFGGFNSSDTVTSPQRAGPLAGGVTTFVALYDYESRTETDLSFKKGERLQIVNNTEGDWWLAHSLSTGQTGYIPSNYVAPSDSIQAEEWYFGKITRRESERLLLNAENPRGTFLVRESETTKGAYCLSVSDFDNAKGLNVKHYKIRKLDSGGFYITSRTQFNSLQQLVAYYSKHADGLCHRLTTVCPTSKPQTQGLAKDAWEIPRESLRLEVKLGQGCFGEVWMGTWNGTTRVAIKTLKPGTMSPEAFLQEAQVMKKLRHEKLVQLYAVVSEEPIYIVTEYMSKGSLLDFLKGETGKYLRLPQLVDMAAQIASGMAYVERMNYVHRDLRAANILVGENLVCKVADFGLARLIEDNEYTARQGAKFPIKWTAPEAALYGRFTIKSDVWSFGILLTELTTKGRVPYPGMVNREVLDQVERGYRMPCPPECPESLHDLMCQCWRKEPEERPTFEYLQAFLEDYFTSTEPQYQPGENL

[26] = molecular target: Tyrosine-protein kinase ABL1 (Homo sapiens, UniProt P00519); assay: Inhibition of c-abl (unknown origin)
Sequence of Tyrosine-protein kinase ABL1 (P00519 whole entry): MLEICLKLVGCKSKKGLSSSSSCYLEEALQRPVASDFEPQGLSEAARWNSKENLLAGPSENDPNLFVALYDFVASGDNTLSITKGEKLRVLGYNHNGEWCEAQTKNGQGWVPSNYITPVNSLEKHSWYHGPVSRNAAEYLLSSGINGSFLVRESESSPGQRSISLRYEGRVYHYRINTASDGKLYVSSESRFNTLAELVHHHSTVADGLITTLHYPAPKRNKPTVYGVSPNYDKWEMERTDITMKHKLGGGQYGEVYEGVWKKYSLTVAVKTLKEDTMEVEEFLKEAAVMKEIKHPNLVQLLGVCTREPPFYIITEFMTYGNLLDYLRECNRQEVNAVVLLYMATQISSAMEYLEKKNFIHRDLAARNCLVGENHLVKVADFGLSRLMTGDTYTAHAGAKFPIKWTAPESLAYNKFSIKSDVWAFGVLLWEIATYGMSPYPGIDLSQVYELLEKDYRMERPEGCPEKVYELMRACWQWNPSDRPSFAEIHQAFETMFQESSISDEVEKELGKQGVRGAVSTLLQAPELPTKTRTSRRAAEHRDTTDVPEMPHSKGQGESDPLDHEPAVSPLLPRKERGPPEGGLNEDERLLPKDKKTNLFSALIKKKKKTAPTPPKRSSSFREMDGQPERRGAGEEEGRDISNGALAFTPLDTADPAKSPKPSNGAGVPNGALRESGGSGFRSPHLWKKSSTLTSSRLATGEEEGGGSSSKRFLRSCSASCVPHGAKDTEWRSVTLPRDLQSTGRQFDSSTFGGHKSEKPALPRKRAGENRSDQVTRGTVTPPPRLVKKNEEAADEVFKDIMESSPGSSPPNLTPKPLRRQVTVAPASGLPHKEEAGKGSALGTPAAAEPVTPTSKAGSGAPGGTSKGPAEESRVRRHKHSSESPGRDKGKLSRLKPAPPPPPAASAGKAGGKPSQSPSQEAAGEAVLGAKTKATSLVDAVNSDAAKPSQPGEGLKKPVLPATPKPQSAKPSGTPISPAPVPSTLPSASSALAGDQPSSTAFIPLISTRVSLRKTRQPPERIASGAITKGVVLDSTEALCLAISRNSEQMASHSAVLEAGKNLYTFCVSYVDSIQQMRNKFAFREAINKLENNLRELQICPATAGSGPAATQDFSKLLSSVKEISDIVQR

[27] = molecular target: DNA topoisomerase 1 (Homo sapiens, UniProt P11387); assay: Inhibition of topoisomerase 1 (unknown origin)
[28] = molecular target: DNA topoisomerase 2-alpha (Homo sapiens, UniProt P11388); assay: Inhibition of topoisomerase 2 alpha (unknown origin)
[29] = test system: KB 3-1; assay: Cytotoxicity against human KB-3-1 cells by MTT assay; type: functional, cell-based
[30] = Inhibition of IL-1 stimulated PGE2 production in human rheumatoid synovial fibroblasts; type: functional, cell-based; conditions: Fibroblast
[31] = organism: Bos taurus; assay: Inhibition of Interleukin-1- stimulated proteoglycan degradation in bovine articular cartilage; type: functional; conditions: Cartilage tissue
[32] = organism: Bos taurus; assay: Inhibition of Interleukin-1- stimulated iNOS gene expression in bovine articular cartilage; type: functional; conditions: Cartilage tissue
[33] = test system: THP-1; assay: Antiinflammatory activity in human THP-1 cells assessed as inhibition of LPS-stimulated IL2 production; type: functional, cell-based
[34] = test system: THP-1; assay: Antiinflammatory activity in human THP-1 cells assessed as inhibition of LPS-stimulated TNFalpha production; type: functional, cell-based
[35] = test system: Human immunodeficiency virus 1; assay: Antiviral activity against HIV1 assessed as inhibition of LC5-RIC cells infection at 3.1 uM relative to control; type: functional
[36] = molecular target: Human immunodeficiency virus type 1 reverse transcriptase (Human immunodeficiency virus 1) (UniProt Q72547); assay: Inhibition of HIV1 Reverse transcriptase at 25 uM relative to control
[37] = organism: Mus musculus; assay: Neuroprotective activity in Swiss mouse cortical neurons assessed as increase in cell viability in presence of H2O2 at 10 nM relative to control; type: functional
[38] = organism: Mus musculus; assay: Neuroprotective activity in Swiss mouse cortical neurons assessed as increase in cell viability in presence of H2O2 at 1 nM relative to control; type: functional
[39] = test system: Rattus norvegicus; assay: Hypotensive effect in rat vascular smooth muscles assessed as reduction in arterial blood pressure at 5 mg/kg measured after 15 mins; type: functional; conditions: Smooth muscle tissue, 0.25 h

With O=C1NCc2ccccc2-c2c1sc1ccccc21 the inhibition of growth at 1 µM [1] was 17%.
For NC1=N/C(=C2/CCNC(=O)c3[nH]ccc32)C(=O)N1 [DEBROMOHYMENIALDISINE], the IC50 [2] was 250 nM, the IC50 [3] was 820 nM and the IC50 [4] was under 10000 nM. The IC50 [5] was 112 nM, the EC50 [6] was 1.8 µg/mL (≈ 7.34 µM) and the inhibition in vivo at 20 mg/kg [7] was over 60%. For the same molecule, the inhibition in vivo at 10 mg/kg [8] was 63% and the Ratio IC50 [9] was 4.
Molecule Cc1ccc2[nH]c3c(c2c1)CNC(=O)c1[nH]c2ccccc2c1-3 has an IC50 [10] of 4200 nM.
With O=C1NCCc2ccccc2-c2c1[nH]c1ccccc21 the IC50 [11] was 460 nM, the IC50 [12] was 9 nM and the IC50 [13] was 7700 nM.
For O=C1NC(=O)/C(=C2/CCNC(=O)c3[nH]c(Br)cc32)N1, the EC50 [14] was 18 µg/mL (≈ 55.4 µM).
With NC1=NC(=O)/C(=C2\CCNC(=O)c3[nH]c(Br)cc32)N1 [HYMENIALDISINE] the IC50 [15] was 40 nM, the IC50 [16] was 100 nM and the IC50 [17] was 470 nM. For the same molecule, the IC50 [18] was 1200 nM, the IC50 [19] was 35 nM and the IC50 [20] was 7000 nM. It also gave an IC50 [21] of 600 nM, an IC50 [5] of 25 nM and an IC50 [22] of 700 nM. It also gave an IC50 [23] of 8000 nM, an IC50 [24] of 1700 nM and an IC50 [25] of 7000 nM. The IC50 [26] was 4000 nM, the IC50 [27] was 10000 nM and the IC50 [28] was 10000 nM. For the same molecule, the EC50 [6] was 3.5 µg/mL (≈ 10.8 µM), the IC50 [29] was 3100 nM and the IC50 [30] was 600 nM. The IC50 [31] was 600 nM, the IC50 [32] was 800 nM and the IC50 [33] was 2400 nM. For the same molecule, the IC50 [34] was 1400 nM, the inhibition at 3.1 µM [35] was 30% and the inhibition [36] was 90%. It also gave an Activity [37] of 120%.
With Nc1nc(C2CCNC(=O)c3[nH]c(Br)c(Br)c32)c[nH]1 (stereo unspecified) the Activity [38] was 120% and the inhibition in vivo at 5 mg/kg [39] was 90%.
